Source: ChEMBL document CHEMBL1151566, “Cephem sulfones as inactivators of human leukocyte elastase. II. Keto-enol tautomerish in cephem-4-ketones” (Bioorg Med Chem Lett, 1992)

Columns and labels:
[1] = Chemical half-life was evaluated at 37 degree C expressed as stability towards hydrolysis; type: physicochemical
[2] = pKa value was determined; type: physicochemical
[3] = target: T1, Neutrophil elastase (Homo sapiens) (UniProt P08246); test: Inhibition of human leukocyte elastase II (HLE-II) as second order rate constant
T1 sequence (whole entry): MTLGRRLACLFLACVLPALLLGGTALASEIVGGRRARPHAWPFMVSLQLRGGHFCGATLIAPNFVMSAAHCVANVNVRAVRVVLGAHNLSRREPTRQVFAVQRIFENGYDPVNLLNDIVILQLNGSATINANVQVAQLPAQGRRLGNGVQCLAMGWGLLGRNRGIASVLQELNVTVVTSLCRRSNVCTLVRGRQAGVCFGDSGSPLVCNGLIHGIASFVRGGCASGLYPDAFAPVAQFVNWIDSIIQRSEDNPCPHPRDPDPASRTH

`CO[C@H]1C(=O)N2C(C(=O)C(C)(C)C)=C(C)CS(=O)(=O)[C@H]12` showed a half-life [1] of 130 h.

In the case of `CO[C@H]1C(=O)N2C(C(=O)c3ccccc3)=C(CSc3nnnn3C)C(Sc3nnnn3C)S(=O)(=O)[C@H]12` (some centres not stated), the pKa [2] is reported as 3.5 and the half-life [1] is reported as 850 h.

For `CO[C@H]1C(=O)N2C(C(=O)C(C)(C)C)=C(CSc3nnnn3C)C(Sc3nnnn3C)S(=O)(=O)[C@H]12` (some centres not stated), the pKa [2] was 6 and the half-life [1] was 24 h.

`CO[C@H]1C(=O)N2C(C(=O)c3ccccc3)=C(C)C(Sc3nnnn3C)S(=O)(=O)[C@H]12` (some centres not stated) gave a pKa [2] of 4.8, a half-life [1] of 120 h and a k on [3] of 200 M⁻¹ s⁻¹.

Molecule `CO[C@H]1C(=O)N2C(C(=O)C(C)(C)C)=C(CSc3nnnn3C)CS(=O)(=O)[C@H]12` has a pKa [2] of 11.6 and a half-life [1] of 24 h.

`CO[C@H]1C(=O)N2C(C(=O)c3ccccc3)=C(CSc3nnnn3C)CS(=O)(=O)[C@H]12` gave a pKa [2] of 8.4 and a half-life [1] of 8.6 h.

`CO[C@H]1C(=O)N2C(C(=O)C(C)(C)C)=C(C)C(Sc3nnc(C)s3)S(=O)(=O)[C@H]12` (some centres not stated) gave a pKa [2] of 7.5, a half-life [1] of 26 h and a k on [3] of 42000 M⁻¹ s⁻¹.

With `CO[C@H]1C(=O)N2C(C(=O)c3ccccc3)=C(C)C(Sc3nc(=O)c(=O)[nH]n3C)S(=O)(=O)[C@H]12` (some centres not stated) the pKa [2] was 5.7, the half-life [1] was 86 h and the k on [3] was 930 M⁻¹ s⁻¹.

`CO[C@H]1C(=O)N2C(C(=O)C(C)(C)C)=C(CSc3nnc(C)s3)CS(=O)(=O)[C@H]12` showed a pKa [2] of 11.9, a half-life [1] of 37 h and a k on [3] of 32000 M⁻¹ s⁻¹.

`CO[C@H]1C(=O)N2C(C(=O)C(C)(C)C)=C(CSc3nnc(C)s3)C(Sc3nnc(C)s3)S(=O)(=O)[C@H]12` (some centres not stated) showed a pKa [2] of 5.8, a half-life [1] of 46 h and a k on [3] of 21000 M⁻¹ s⁻¹.

`CO[C@H]1C(=O)N2C(C(=O)C(C)(C)C)=C(C)C(Sc3nc(=O)c(=O)[nH]n3C)S(=O)(=O)[C@H]12` (some centres not stated) gave a pKa [2] of 8.9, a half-life [1] of 16.3 h and a k on [3] of 54000 M⁻¹ s⁻¹.

For `CO[C@H]1C(=O)N2C(C(=O)C(C)(C)C)=C(C)C(Sc3nnnn3C)S(=O)(=O)[C@H]12` (some centres not stated), the pKa [2] was 7.9, the half-life [1] was 14.8 h and the k on [3] was 100000 M⁻¹ s⁻¹.

`CO[C@H]1C(=O)N2C(C(=O)c3ccccc3)=C(C)CS(=O)(=O)[C@H]12` gave a pKa [2] of 9.6 and a half-life [1] of 33 h.
